# Tests used:
# Test in all cases: radiometric filter-binding kinase assay, Kinase HotSpot
# MAP4K2 (human) = MAP4K2 (human) (UniProt Q12851); conditions: compound 0.5 µM; ATP 10 µM
# RIPK2 (human) = RIPK2 (human) (UniProt O43353); conditions: compound 0.5 µM; ATP 10 µM
# PRKCI (human) = PRKCI (human) (UniProt P41743); conditions: compound 0.5 µM; ATP 10 µM
# NEK11 (human) = NEK11 (human) (UniProt Q8NG66); conditions: compound 0.5 µM; ATP 10 µM
# RPS6KA4 KD2 (human) = RPS6KA4 KD2 (human) (UniProt O75676); conditions: compound 0.5 µM; ATP 10 µM
# Sequence of RPS6KA4 KD2 (human) (O75676 whole entry, looked up): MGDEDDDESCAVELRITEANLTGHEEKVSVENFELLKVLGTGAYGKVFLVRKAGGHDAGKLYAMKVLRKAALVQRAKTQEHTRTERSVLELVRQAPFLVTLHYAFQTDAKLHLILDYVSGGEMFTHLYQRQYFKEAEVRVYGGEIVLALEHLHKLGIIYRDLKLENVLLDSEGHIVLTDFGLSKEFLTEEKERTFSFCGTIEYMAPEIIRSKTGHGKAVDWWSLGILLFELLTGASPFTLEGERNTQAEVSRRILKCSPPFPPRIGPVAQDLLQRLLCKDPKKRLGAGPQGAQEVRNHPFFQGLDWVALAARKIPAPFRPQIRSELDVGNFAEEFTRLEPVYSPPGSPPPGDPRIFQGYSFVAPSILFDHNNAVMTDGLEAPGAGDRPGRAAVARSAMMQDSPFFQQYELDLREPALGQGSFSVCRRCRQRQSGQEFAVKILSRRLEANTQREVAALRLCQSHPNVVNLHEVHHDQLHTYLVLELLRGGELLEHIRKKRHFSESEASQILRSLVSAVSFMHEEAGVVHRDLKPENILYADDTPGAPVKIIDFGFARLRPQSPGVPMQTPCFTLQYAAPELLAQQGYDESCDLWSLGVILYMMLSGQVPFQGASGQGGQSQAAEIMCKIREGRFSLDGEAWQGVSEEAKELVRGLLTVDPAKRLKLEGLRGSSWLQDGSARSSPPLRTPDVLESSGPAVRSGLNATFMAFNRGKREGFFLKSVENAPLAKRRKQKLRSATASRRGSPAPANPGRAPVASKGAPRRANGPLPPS
# PIM1 (human) = PIM1 (human) (UniProt P11309); conditions: compound 0.5 µM; ATP 10 µM
# EPHA5 (human) = EPHA5 (human) (UniProt P54756); conditions: compound 0.5 µM; ATP 10 µM
# CSNK1A1 (human) = CSNK1A1 (human) (UniProt P48729); conditions: compound 0.5 µM; ATP 10 µM
# SYK (human) = SYK (human) (UniProt P43405); conditions: compound 0.5 µM; ATP 10 µM
# NEK3 (human) = NEK3 (human) (UniProt P51956); conditions: compound 0.5 µM; ATP 10 µM
# CLK3 (human) = CLK3 (human) (UniProt P49761); conditions: compound 0.5 µM; ATP 10 µM
# DYRK2 (human) = DYRK2 (human) (UniProt Q92630); conditions: compound 0.5 µM; ATP 10 µM
# PRKD1 (human) = PRKD1 (human) (UniProt Q15139); conditions: compound 0.5 µM; ATP 10 µM
# Sequence of PRKD1 (human) (Q15139 whole entry, looked up): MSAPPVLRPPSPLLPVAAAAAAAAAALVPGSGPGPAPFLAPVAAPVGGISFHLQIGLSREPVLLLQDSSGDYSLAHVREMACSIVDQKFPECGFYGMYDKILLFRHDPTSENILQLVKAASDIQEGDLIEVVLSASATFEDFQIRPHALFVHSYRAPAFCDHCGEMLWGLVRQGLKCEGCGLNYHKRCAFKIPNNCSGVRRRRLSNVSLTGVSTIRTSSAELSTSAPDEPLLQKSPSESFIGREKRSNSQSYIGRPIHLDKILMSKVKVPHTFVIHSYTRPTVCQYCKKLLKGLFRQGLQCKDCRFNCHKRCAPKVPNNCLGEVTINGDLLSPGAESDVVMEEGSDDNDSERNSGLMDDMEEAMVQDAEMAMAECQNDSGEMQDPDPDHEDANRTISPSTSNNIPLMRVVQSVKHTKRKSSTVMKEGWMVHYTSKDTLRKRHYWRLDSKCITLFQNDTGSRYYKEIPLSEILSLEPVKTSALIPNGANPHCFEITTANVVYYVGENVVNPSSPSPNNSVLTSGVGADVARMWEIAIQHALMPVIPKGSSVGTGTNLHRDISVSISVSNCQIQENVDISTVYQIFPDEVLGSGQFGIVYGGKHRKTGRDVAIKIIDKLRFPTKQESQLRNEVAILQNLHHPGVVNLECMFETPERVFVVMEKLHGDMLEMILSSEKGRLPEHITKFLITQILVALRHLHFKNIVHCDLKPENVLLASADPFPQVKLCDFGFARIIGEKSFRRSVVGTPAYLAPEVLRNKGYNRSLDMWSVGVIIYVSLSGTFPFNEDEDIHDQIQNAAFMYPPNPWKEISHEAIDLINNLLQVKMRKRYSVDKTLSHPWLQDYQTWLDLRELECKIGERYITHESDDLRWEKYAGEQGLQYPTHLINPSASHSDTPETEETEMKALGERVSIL
# TSSK2 (human) = TSSK2 (human) (UniProt Q96PF2); conditions: compound 0.5 µM; ATP 10 µM
# ADRBK2 (human) = ADRBK2 (human) (UniProt P35626); conditions: compound 0.5 µM; ATP 10 µM
# NEK6 (human) = NEK6 (human) (UniProt Q9HC98); conditions: compound 0.5 µM; ATP 10 µM
# NEK1 (human) = NEK1 (human) (UniProt Q96PY6); conditions: compound 0.5 µM; ATP 10 µM
# PRKCE (human) = PRKCE (human) (UniProt Q02156); conditions: compound 0.5 µM; ATP 10 µM
# RPS6KA5 KD2 (human) = RPS6KA5 KD2 (human) (UniProt O75582); conditions: compound 0.5 µM; ATP 10 µM
# INSRR (human) = INSRR (human) (UniProt P14616); conditions: compound 0.5 µM; ATP 10 µM
# MARK3 (human) = MARK3 (human) (UniProt P27448); conditions: compound 0.5 µM; ATP 10 µM
# FLT3 (human) = FLT3 (human) (UniProt P36888); conditions: compound 0.5 µM; ATP 10 µM
# FER (human) = FER (human) (UniProt P16591); conditions: compound 0.5 µM; ATP 10 µM
# MAP3K5 (human) = MAP3K5 (human) (UniProt Q99683); conditions: compound 0.5 µM; ATP 10 µM
# Sequence of MAP3K5 (human) (Q99683 whole entry, looked up): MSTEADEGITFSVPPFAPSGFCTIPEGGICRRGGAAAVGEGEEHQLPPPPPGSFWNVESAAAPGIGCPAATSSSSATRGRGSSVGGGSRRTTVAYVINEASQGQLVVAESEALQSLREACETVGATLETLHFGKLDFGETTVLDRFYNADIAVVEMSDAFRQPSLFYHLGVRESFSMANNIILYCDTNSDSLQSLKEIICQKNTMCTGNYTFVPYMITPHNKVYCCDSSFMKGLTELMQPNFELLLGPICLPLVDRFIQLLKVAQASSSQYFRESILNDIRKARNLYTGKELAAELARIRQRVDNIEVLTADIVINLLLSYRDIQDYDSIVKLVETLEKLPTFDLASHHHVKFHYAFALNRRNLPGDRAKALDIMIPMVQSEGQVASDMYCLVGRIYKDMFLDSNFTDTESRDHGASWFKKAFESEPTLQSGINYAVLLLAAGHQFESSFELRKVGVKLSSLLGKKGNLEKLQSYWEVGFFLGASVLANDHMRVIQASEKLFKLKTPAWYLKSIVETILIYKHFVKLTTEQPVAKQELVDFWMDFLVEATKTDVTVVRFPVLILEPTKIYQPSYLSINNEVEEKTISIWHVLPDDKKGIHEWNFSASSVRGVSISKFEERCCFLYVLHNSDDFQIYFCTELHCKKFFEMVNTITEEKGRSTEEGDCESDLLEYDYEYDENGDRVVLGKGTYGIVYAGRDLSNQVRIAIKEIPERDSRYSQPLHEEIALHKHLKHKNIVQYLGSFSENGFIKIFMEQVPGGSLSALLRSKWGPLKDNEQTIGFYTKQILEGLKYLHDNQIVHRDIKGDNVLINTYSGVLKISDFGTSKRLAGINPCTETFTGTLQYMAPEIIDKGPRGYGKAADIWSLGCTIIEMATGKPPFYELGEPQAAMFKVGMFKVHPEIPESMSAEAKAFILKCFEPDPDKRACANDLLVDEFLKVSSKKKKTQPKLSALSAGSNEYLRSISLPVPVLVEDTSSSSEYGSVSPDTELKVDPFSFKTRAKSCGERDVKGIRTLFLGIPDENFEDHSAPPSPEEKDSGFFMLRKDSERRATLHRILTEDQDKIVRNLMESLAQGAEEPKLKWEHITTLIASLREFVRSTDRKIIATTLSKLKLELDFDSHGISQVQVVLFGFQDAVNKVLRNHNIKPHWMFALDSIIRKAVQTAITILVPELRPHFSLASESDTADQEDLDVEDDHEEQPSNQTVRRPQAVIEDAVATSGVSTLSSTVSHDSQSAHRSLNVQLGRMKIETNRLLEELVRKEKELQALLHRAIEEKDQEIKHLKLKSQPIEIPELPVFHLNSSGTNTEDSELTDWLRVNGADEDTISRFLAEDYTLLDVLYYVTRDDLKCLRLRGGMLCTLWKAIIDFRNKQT
# IRAK1 (human) = IRAK1 (human) (UniProt P51617); conditions: compound 0.5 µM; ATP 10 µM
# PRKCB1 (human) = PRKCB1 (human) (UniProt P05771); conditions: compound 0.5 µM; ATP 10 µM
# PDGFRB (human) = PDGFRB (human) (UniProt P09619); conditions: compound 0.5 µM; ATP 10 µM
# LIMK1 (human) = LIMK1 (human) (UniProt P53667); conditions: compound 0.5 µM; ATP 10 µM
# IRAK4 (human) = IRAK4 (human) (UniProt Q9NWZ3); conditions: compound 0.5 µM; ATP 10 µM
# Sequence of IRAK4 (human) (Q9NWZ3 whole entry, looked up): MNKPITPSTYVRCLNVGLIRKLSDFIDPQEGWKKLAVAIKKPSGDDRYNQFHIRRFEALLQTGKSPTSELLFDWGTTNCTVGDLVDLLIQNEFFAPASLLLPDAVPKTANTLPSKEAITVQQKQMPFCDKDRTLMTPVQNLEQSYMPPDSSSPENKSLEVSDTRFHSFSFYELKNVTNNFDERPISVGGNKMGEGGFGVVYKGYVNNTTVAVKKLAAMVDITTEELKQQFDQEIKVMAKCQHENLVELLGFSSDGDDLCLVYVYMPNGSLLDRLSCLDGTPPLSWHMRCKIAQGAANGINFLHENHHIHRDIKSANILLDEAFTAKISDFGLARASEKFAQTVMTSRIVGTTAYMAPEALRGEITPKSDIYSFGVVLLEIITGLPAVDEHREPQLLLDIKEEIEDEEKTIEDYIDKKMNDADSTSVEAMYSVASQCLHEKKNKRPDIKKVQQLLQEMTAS
# CDK3 CCNE1 (human) = CDK3 CCNE1 (human) (UniProt Q00526+P24864); conditions: compound 0.5 µM
# EPHB1 (human) = EPHB1 (human) (UniProt P54762); conditions: compound 0.5 µM; ATP 10 µM
# AKT1 (human) = AKT1 (human) (UniProt P31749); conditions: compound 0.5 µM; ATP 10 µM
# NLK (human) = NLK (human) (UniProt Q9UBE8); conditions: compound 0.5 µM; ATP 10 µM
# YES1 (human) = YES1 (human) (UniProt P07947); conditions: compound 0.5 µM; ATP 10 µM
# CAMKK1 (human) = CAMKK1 (human) (UniProt Q8N5S9); conditions: compound 0.5 µM; ATP 10 µM
# CSNK1G1 (human) = CSNK1G1 (human) (UniProt Q9HCP0); conditions: compound 0.5 µM; ATP 10 µM
# MAPK10 (human) = MAPK10 (human) (UniProt P53779); conditions: compound 0.5 µM; ATP 10 µM
# SRPK1 (human) = SRPK1 (human) (UniProt Q96SB4); conditions: compound 0.5 µM; ATP 10 µM
# PRKX (human) = PRKX (human) (UniProt P51817); conditions: compound 0.5 µM; ATP 10 µM
# Sequence of PRKX (human) (P51817 whole entry, looked up): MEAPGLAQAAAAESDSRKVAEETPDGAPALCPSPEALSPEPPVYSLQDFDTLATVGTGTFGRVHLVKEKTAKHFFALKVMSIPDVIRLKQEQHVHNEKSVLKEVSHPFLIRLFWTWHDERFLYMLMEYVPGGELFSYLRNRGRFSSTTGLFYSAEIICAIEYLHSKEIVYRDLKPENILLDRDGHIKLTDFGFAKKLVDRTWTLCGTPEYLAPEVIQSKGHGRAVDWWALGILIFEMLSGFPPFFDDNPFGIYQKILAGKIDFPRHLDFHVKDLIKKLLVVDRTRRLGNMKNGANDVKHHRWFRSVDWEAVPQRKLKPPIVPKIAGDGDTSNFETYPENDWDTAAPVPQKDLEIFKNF
# EPHB3 (human) = EPHB3 (human) (UniProt P54753); conditions: compound 0.5 µM; ATP 10 µM
# Sequence of EPHB3 (human) (P54753 whole entry, looked up): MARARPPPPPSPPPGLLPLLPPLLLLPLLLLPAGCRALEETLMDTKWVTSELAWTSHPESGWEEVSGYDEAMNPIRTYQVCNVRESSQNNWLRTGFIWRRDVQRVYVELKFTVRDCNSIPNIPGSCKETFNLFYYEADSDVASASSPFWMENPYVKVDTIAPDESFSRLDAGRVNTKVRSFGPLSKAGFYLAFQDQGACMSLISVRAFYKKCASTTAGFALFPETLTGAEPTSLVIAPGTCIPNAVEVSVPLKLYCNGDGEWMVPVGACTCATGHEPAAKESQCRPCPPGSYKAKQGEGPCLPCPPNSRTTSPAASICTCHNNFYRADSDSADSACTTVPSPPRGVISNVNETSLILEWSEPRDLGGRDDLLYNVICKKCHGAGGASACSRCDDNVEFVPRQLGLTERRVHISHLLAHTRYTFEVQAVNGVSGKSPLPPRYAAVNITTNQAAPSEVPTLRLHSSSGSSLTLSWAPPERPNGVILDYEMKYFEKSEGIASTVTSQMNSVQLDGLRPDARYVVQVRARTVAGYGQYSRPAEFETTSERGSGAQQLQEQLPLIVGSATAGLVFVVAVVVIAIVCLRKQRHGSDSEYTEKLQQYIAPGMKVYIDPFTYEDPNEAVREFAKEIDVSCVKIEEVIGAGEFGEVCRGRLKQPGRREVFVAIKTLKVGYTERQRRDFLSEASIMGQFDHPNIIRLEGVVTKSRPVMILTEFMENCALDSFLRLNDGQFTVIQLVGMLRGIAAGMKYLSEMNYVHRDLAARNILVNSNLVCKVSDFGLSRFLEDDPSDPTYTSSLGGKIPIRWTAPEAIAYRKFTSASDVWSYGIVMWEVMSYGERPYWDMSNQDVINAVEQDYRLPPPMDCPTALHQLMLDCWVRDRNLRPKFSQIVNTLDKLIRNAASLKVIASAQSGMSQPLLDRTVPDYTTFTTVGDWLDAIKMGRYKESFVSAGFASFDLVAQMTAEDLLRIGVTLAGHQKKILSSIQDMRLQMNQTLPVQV
# GRK6 (human) = GRK6 (human) (UniProt P43250); conditions: compound 0.5 µM; ATP 10 µM
# SRC (human) = SRC (human) (UniProt P12931); conditions: compound 0.5 µM; ATP 10 µM
structure (smiles),measurement,setting,value
COc1cccc(-c2cc(=O)c3ccccc3o2)c1N,residual activity,MAP4K2 (human),81.7%
same,residual activity,RIPK2 (human),87.5%
same,residual activity,PRKCI (human),97.3%
same,residual activity,NEK11 (human),92.9%
same,residual activity,RPS6KA4 KD2 (human),103%
same,residual activity,PIM1 (human),93.9%
same,residual activity,EPHA5 (human),97.9%
same,residual activity,CSNK1A1 (human),95.6%
same,residual activity,SYK (human),97.2%
same,residual activity,NEK3 (human),102%
same,residual activity,CLK3 (human),95.4%
same,residual activity,DYRK2 (human),92.5%
same,residual activity,PRKD1 (human),103%
same,residual activity,TSSK2 (human),79.7%
same,residual activity,ADRBK2 (human),94.7%
same,residual activity,NEK6 (human),102%
same,residual activity,NEK1 (human),81.2%
same,residual activity,PRKCE (human),82.4%
same,residual activity,RPS6KA5 KD2 (human),96.4%
same,residual activity,INSRR (human),98.4%
same,residual activity,MARK3 (human),86.7%
same,residual activity,FLT3 (human),96.3%
same,residual activity,FER (human),97.6%
same,residual activity,MAP3K5 (human),103%
same,residual activity,IRAK1 (human),98.8%
same,residual activity,PRKCB1 (human),98.5%
same,residual activity,PDGFRB (human),99.4%
same,residual activity,LIMK1 (human),96.1%
same,residual activity,IRAK4 (human),86.4%
same,residual activity,CDK3 CCNE1 (human); ATP 10 µM,109%
same,residual activity,EPHB1 (human),88%
same,residual activity,AKT1 (human),93.8%
same,residual activity,NLK (human),96.4%
same,residual activity,YES1 (human),93.5%
same,residual activity,CAMKK1 (human),98.8%
same,residual activity,CSNK1G1 (human),83.5%
same,residual activity,MAPK10 (human),85.7%
same,residual activity,SRPK1 (human),93.4%
same,residual activity,PRKX (human),101%
same,residual activity,EPHB3 (human),91.9%
same,residual activity,GRK6 (human),90.7%
same,residual activity,SRC (human),92.6%
O=C(O)c1ccc2c3c1cccc3c(=O)n1c3ccccc3nc21,residual activity,MAP4K2 (human),38%
same,residual activity,RIPK2 (human),78.4%
same,residual activity,PRKCI (human),94.6%
same,residual activity,NEK11 (human),83%
same,residual activity,RPS6KA4 KD2 (human),110%
same,residual activity,PIM1 (human),59.5%
same,residual activity,EPHA5 (human),94.2%
same,residual activity,CSNK1A1 (human),97.6%
same,residual activity,SYK (human),96%
same,residual activity,NEK3 (human),91.8%
same,residual activity,CLK3 (human),95.4%
same,residual activity,DYRK2 (human),50.7%
same,residual activity,PRKD1 (human),86.2%
same,residual activity,TSSK2 (human),106%
same,residual activity,ADRBK2 (human),103%
same,residual activity,NEK6 (human),115%
same,residual activity,NEK1 (human),87.8%
same,residual activity,PRKCE (human),113%
same,residual activity,RPS6KA5 KD2 (human),104%
same,residual activity,INSRR (human),101%
same,residual activity,MARK3 (human),82.6%
same,residual activity,FLT3 (human),68.9%
same,residual activity,FER (human),96.5%
same,residual activity,MAP3K5 (human),102%
same,residual activity,IRAK1 (human),61.1%
same,residual activity,PRKCB1 (human),89.8%
same,residual activity,PDGFRB (human),107%
same,residual activity,LIMK1 (human),92.7%
same,residual activity,IRAK4 (human),107%
same,residual activity,CDK3 CCNE1 (human); ATP 10 µM,97.9%
same,residual activity,EPHB1 (human),97.5%
same,residual activity,AKT1 (human),101%
same,residual activity,NLK (human),96.1%
same,residual activity,YES1 (human),96.6%
same,residual activity,CAMKK1 (human),45.8%
same,residual activity,CSNK1G1 (human),99.5%
same,residual activity,MAPK10 (human),108%
same,residual activity,SRPK1 (human),96.1%
same,residual activity,PRKX (human),93.7%
same,residual activity,EPHB3 (human),94.5%
same,residual activity,GRK6 (human),91.4%
same,residual activity,SRC (human),96.3%
O=c1[nH]c2ccccc2n1C1CCN(Cc2ccc(-c3nc4cc5[nH]cnc5cc4nc3-c3ccccc3)cc2)CC1,residual activity,MAP4K2 (human),105%
same,residual activity,RIPK2 (human),89.2%
same,residual activity,PRKCI (human),97%
same,residual activity,NEK11 (human),86.4%
same,residual activity,RPS6KA4 KD2 (human),98.8%
same,residual activity,PIM1 (human),106%
same,residual activity,EPHA5 (human),102%
same,residual activity,CSNK1A1 (human),96%
same,residual activity,SYK (human),97.9%
same,residual activity,NEK3 (human),97.2%
same,residual activity,CLK3 (human),111%
same,residual activity,DYRK2 (human),107%
same,residual activity,PRKD1 (human),94.7%
same,residual activity,TSSK2 (human),96.2%
same,residual activity,ADRBK2 (human),87.3%
same,residual activity,NEK6 (human),98.2%
same,residual activity,NEK1 (human),101%
same,residual activity,PRKCE (human),109%
same,residual activity,RPS6KA5 KD2 (human),103%
same,residual activity,INSRR (human),101%
same,residual activity,MARK3 (human),103%
same,residual activity,FLT3 (human),94.6%
same,residual activity,FER (human),99.6%
same,residual activity,MAP3K5 (human),93.8%
same,residual activity,IRAK1 (human),109%
same,residual activity,PRKCB1 (human),108%
same,residual activity,PDGFRB (human),102%
same,residual activity,LIMK1 (human),110%
same,residual activity,IRAK4 (human),201%
same,residual activity,CDK3 CCNE1 (human),97.5%
same,residual activity,EPHB1 (human),104%
same,residual activity,AKT1 (human),114%
same,residual activity,NLK (human),104%
same,residual activity,YES1 (human),90.8%
same,residual activity,CAMKK1 (human),117%
same,residual activity,CSNK1G1 (human),99.3%
same,residual activity,MAPK10 (human),96%
same,residual activity,SRPK1 (human),106%
same,residual activity,PRKX (human),101%
same,residual activity,EPHB3 (human),104%
same,residual activity,GRK6 (human),88%
same,residual activity,SRC (human),103%
O=C1NC(=O)c2c1c1c3ccccc3[nH]c1c1[nH]c3cc(Br)ccc3c21,residual activity,MAP4K2 (human),74.1%
same,residual activity,RIPK2 (human),99.6%
same,residual activity,PRKCI (human),96.2%
same,residual activity,NEK11 (human),109%
same,residual activity,RPS6KA4 KD2 (human),75.9%
same,residual activity,PIM1 (human),8.84%
same,residual activity,EPHA5 (human),90.5%
same,residual activity,CSNK1A1 (human),95.4%
same,residual activity,SYK (human),58.3%
same,residual activity,NEK3 (human),88.3%
same,residual activity,CLK3 (human),93.4%
same,residual activity,DYRK2 (human),70.5%
same,residual activity,PRKD1 (human),51.9%
same,residual activity,TSSK2 (human),96.9%
same,residual activity,ADRBK2 (human),95.2%
same,residual activity,NEK6 (human),104%
same,residual activity,NEK1 (human),89.1%
same,residual activity,PRKCE (human),95.7%
same,residual activity,RPS6KA5 KD2 (human),76.1%
same,residual activity,INSRR (human),85.8%
same,residual activity,MARK3 (human),57.3%
same,residual activity,FLT3 (human),8.19%
same,residual activity,FER (human),88.9%
same,residual activity,MAP3K5 (human),94.9%
same,residual activity,IRAK1 (human),81.8%
same,residual activity,PRKCB1 (human),78.6%
same,residual activity,PDGFRB (human),82.6%
same,residual activity,LIMK1 (human),83.5%
same,residual activity,IRAK4 (human),76.2%
same,residual activity,CDK3 CCNE1 (human); ATP 10 µM,88.1%
same,residual activity,EPHB1 (human),95.5%
same,residual activity,AKT1 (human),101%
same,residual activity,NLK (human),81.7%
same,residual activity,YES1 (human),88.4%
same,residual activity,CAMKK1 (human),99.1%
same,residual activity,CSNK1G1 (human),96.2%
same,residual activity,MAPK10 (human),105%
same,residual activity,SRPK1 (human),86.4%
same,residual activity,PRKX (human),85.1%
same,residual activity,EPHB3 (human),91.9%
same,residual activity,GRK6 (human),108%
same,residual activity,SRC (human),88.9%
